{"source": "paper PMC3711097", "about": "(Molecular bioSystems, 2013)", "tested_on": "KedF", "test": "continuous spectrophotometric assay with periodate, […] nm", "type": "biochemical, Streptoalloteichus sp. ATCC 53650", "settings": "50 mM phosphate pH 8.0, 25 °C, 3 mM sodium periodate", "data": [{"smiles": "c1ccc([C@@H]2CO2)cc1", "note": "[(R)-styrene oxide]", "values": [{"measurement": "Km", "setting": "9.6 μM KedF", "result": "3500 ± 640", "unit": "µM"}]}, {"smiles": "c1ccc([C@H]2CO2)cc1", "note": "[(S)-styrene oxide]", "values": [{"measurement": "Km", "setting": "4.0 μM KedF", "result": "910 ± 100", "unit": "µM"}]}]}
